Among the test systems are HCC-2998 colon; IGROV1 ovarian; MOLT-4 leukemia; NCI-H23 lung; OVCAR-5 ovarian; PC-3 prostate; RXF 393 renal; SF-295 CNS; SK-MEL-2 melanoma; UO-31 renal.
What all share (assay): DTP human tumour cell line panel, 48 h

A word on the GI50: it is the concentration that inhibits growth by half. One may read the TGI as the concentration giving total growth inhibition. Low readings indicate more potent growth arrest, high ones less potent growth arrest.

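Briefly, cells in 96-well plates were exposed to five compound concentrations for 48 h, and endpoints were estimated by linear interpolation. GI50 marks 50% less growth. Definition used: TGI = concentration required for complete inhibition of growth.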

With `O=c1c2c(nc3n1CCS3)[nH]c1cc([N+](=O)[O-])ccc12`, the GI50 in the assay with HCC-2998 colon is above 100000 nM; in the assay with IGROV1 ovarian, 36200 nM; in the assay on MOLT-4 leukemia it was 81500 nM; in the assay on NCI-H23 lung, above 100000 nM; in the assay with OVCAR-5 ovarian, above 100000 nM; in the assay with PC-3 prostate, above 100000 nM. Moreover, the GI50 with RXF 393 renal was 92600 nM; with SF-295 CNS, above 100000 nM; in the assay on SK-MEL-2 melanoma, above 100000 nM; with UO-31 renal it was above 100000 nM. The TGI in the assay on HCC-2998 colon, with IGROV1 ovarian, in the assay on MOLT-4 leukemia, with NCI-H23 lung, in the assay with OVCAR-5 ovarian and in the assay on PC-3 prostate was above 100000 nM throughout. Further, the total growth inhibition concentration (TGI) with RXF 393 renal, in the assay on SF-295 CNS, in the assay with SK-MEL-2 melanoma and in the assay with UO-31 renal was above 100000 nM in each case.
In the case of `CN[C@H]1CN(c2ccc3c(=O)c(C(=O)O)cn(-c4nccs4)c3n2)C[C@@H]1OC`, the GI50 in the assay on HCC-2998 colon was 856 nM; in the assay with IGROV1 ovarian, 353 nM; in the assay with MOLT-4 leukemia it was 126 nM; in the assay with NCI-H23 lung, 340 nM; with OVCAR-5 ovarian it was 2310 nM; in the assay with PC-3 prostate, 1650 nM. For the same compound, the GI50 with RXF 393 renal is 1160 nM; in the assay on SF-295 CNS, 332 nM; with SK-MEL-2 melanoma, 1510 nM; in the assay on UO-31 renal it was 566 nM. Moreover, the TGI stood at 3580 nM in the assay on HCC-2998 colon; 7150 nM with IGROV1 ovarian; 1000 nM in the assay with MOLT-4 leukemia; 2010 nM in the assay on NCI-H23 lung; 6450 nM in the assay with OVCAR-5 ovarian; 19400 nM with PC-3 prostate. For the same compound, the TGI in the assay with RXF 393 renal amounted to 3630 nM; in the assay with SF-295 CNS, 2370 nM; in the assay on SK-MEL-2 melanoma, 3560 nM; with UO-31 renal it was 2930 nM.
In the case of `Oc1c(Cl)cc(Cl)c(Cl)c1CNCCNCc1c(O)c(Cl)cc(Cl)c1Cl`, the GI50 with HCC-2998 colon is 2690 nM; in the assay on IGROV1 ovarian, 951 nM; in the assay with MOLT-4 leukemia, 561 nM; in the assay on NCI-H23 lung, 1420 nM; in the assay on OVCAR-5 ovarian it was 2490 nM; with PC-3 prostate, 1920 nM. Further, the GI50 with RXF 393 renal is 1410 nM; in the assay with SF-295 CNS, 1260 nM; with SK-MEL-2 melanoma it was 3400 nM; with UO-31 renal, 625 nM. The concentration for total growth inhibition (TGI) is above 50000 nM in the assay on HCC-2998 colon; 7800 nM in the assay on IGROV1 ovarian; above 50000 nM in the assay on MOLT-4 leukemia; 9080 nM in the assay with NCI-H23 lung; 29000 nM with OVCAR-5 ovarian; 11100 nM in the assay with PC-3 prostate. For the same compound, the TGI with RXF 393 renal was determined as 6740 nM; in the assay on SF-295 CNS, 20300 nM; with SK-MEL-2 melanoma, 14100 nM; in the assay with UO-31 renal, 6420 nM.
`COc1ccc(/C=C\c2cc(OC)c(OC)c(OC)c2)cc1OCC(=O)Nc1nc2ccc(F)cc2s1`: the GI50 with HCC-2998 colon is above 100000 nM; in the assay with IGROV1 ovarian it was 4170 nM; in the assay on MOLT-4 leukemia, 3070 nM; in the assay with NCI-H23 lung, 4260 nM; in the assay on OVCAR-5 ovarian it was above 100000 nM; with PC-3 prostate it was 6740 nM. Moreover, the GI50 in the assay on RXF 393 renal was 6290 nM; with SF-295 CNS, 4290 nM; in the assay with SK-MEL-2 melanoma, 8460 nM; in the assay with UO-31 renal, 2560 nM. Moreover, the TGI in the assay with HCC-2998 colon, in the assay with IGROV1 ovarian, with MOLT-4 leukemia, with NCI-H23 lung, with OVCAR-5 ovarian and in the assay with PC-3 prostate was above 100000 nM throughout. Moreover, the total growth inhibition concentration (TGI) in the assay with RXF 393 renal, with SF-295 CNS, in the assay with SK-MEL-2 melanoma and in the assay on UO-31 renal was above 100000 nM throughout.
In the case of `CCc1ccc(Oc2c(-c3ccc(OCc4ccc(Cl)cc4)cc3O)n[nH]c2C(F)(F)F)cc1`, the GI50 with HCC-2998 colon is 1930 nM; with IGROV1 ovarian, 2330 nM; in the assay with MOLT-4 leukemia it was 2460 nM; in the assay with NCI-H23 lung, 1670 nM; with OVCAR-5 ovarian it was 1890 nM; with PC-3 prostate it was 1880 nM. Besides, the GI50 is 1650 nM in the assay on RXF 393 renal, 2040 nM with SF-295 CNS, 1750 nM with SK-MEL-2 melanoma and 1680 nM in the assay on UO-31 renal. The TGI came to 4000 nM in the assay with HCC-2998 colon; 6870 nM with IGROV1 ovarian; 5640 nM in the assay on MOLT-4 leukemia; 3350 nM with NCI-H23 lung; 3950 nM in the assay on OVCAR-5 ovarian; 3860 nM in the assay on PC-3 prostate. Also, the TGI in the assay on RXF 393 renal turned out to be 3160 nM; in the assay on SF-295 CNS it was 4740 nM; in the assay on SK-MEL-2 melanoma it was 3740 nM; in the assay on UO-31 renal, 3890 nM.
For `CC(C)C[C@H](NC(=O)CNC(=O)c1cc(Cl)ccc1Cl)B(O)O`, the GI50 is 19.9 nM in the assay on HCC-2998 colon; 49.8 nM in the assay with IGROV1 ovarian; 18.7 nM in the assay on MOLT-4 leukemia; 28.2 nM with NCI-H23 lung; 49.3 nM with OVCAR-5 ovarian; 48.6 nM in the assay on PC-3 prostate. Moreover, the GI50 is below 13.8 nM with RXF 393 renal, 25.2 nM with SF-295 CNS, below 14.5 nM in the assay on SK-MEL-2 melanoma and below 13.1 nM with UO-31 renal. Further, the TGI is 43.6 nM in the assay on HCC-2998 colon; 283 nM with IGROV1 ovarian; 79.7 nM in the assay on MOLT-4 leukemia; 551 nM in the assay on OVCAR-5 ovarian; 841 nM in the assay on PC-3 prostate; 35.6 nM with RXF 393 renal. Moreover, the TGI with SF-295 CNS came out at 100 nM; with SK-MEL-2 melanoma, 36.4 nM; in the assay with UO-31 renal, 40.6 nM.

(Values after PubChem BioAssay (NCI).)
